Among the data in the NIST ThermoML archive (doi:10.1021/acs.jced.6b00112) are mass density and refractive index values, retold here.

± gives the expanded uncertainty stated by the source.

For series [1] the following is noted: 298.15 K; 101.33 kPa; Liquid; Vibrating tube method.
Series [2] is described as follows: refractive index (Na D-line) (dimensionless). Conditions: 298.15 K; 101.33 kPa; Liquid; Standard Abbe refractometry.

In the case of `CC(=O)O` [acetic acid], the mass density (usually mass per unit of volume) in series [1] worked out at 1044.12 ± 10 kg/m3. Moreover, the refractive index (commonly a measure of how strongly the sample bends light) in series [2] is listed as 1.3714 ± 0.0008.

On to `CCCC(=O)O` [butanoic acid], for which the mass density in series [1] came to 952.68 ± 10 kg/m3. Besides, the refractive index in series [2] was 1.3977 ± 0.0008.

As for `CCC(=O)O` [propanoic acid], the mass density in series [1] amounted to 998.04 ± 10 kg/m3. The refractive index in series [2] was found to be 1.3807 ± 0.0008.

For `CCc1ccccc1` [ethylbenzene], the mass density in series [1] came to 862.51 ± 10 kg/m3. The refractive index in series [2] is 1.493 ± 0.0008.

Turning to `O` [water], the refractive index in series [2] is recorded as 1.3324 ± 0.0008.

For the molecule `O=CO` [formic acid], the mass density in series [1] turned out to be 1219.5 ± 10 kg/m3. For the same molecule, the refractive index in series [2] was found to be 1.371 ± 0.0008.
